This note sets out measurements from patent US20250268906A1, “MOLECULAR GLUE COMPOUND BASED ON CEREBLON PROTEIN DESIGN AND USE THEREOF” (GLUETACS THERAPEUTICS (SHANGHAI) CO., LTD., priority 2022, published 2025).

Test [1] addresses human Cereblon WT GST-tagged protein (Homo sapiens (Human), UniProt Q96SW2). Put plainly: CRBN binding, HTRF (CEREBLON BINDING kit). On the procedure:
The CEREBLON BINDING kits (specification: 10,000 tests; product number: Catalog #64BDCRBNPEH; CISBIO company) was used to determine the CRBN binding ability of the compounds to be tested through a HTRF method (homogeneous time-resolved fluorescence). The specific methods are as follows: • 1. […] Then, 2.5 μL of human Cereblon WT GST-tagged protein solution was added to each well. Finally, 5 μL of the thoroughly mixed Thalidomide-Re reagent and GST Eu antibody working solution were added to each of the aforementioned wells. […] The blank control wells were sequentially added with 2.5 μL of diluent #9 (1×) solution, 2.5 μL of PROTAC binding buffer, and 5 μL of thoroughly mixed Thalidomide-Re reagent and GST Eu antibody working solution. • 4.
The corresponding CRBN binding inhibition rate was calculated using the following method: […]
OD 620 nmcompound is the absorbance value of each well of the compounds of the present disclosure to be tested at an emission wavelength of 620 nm. […] OD 620 nmcontrol is the absorbance value of the blank control well at an emission wavelength of 620 nm. […] OD 620 nmStd0 is the absorbance value of the solvent control well at an emission wavelength of 620 nm.

A further test relates to Mino cells. Put plainly: Tumor cell proliferation inhibition, CCK-8 kit, 96 h. The conditions noted are these: Homo sapiens, Mino cells, CCK-8, read-out: IC50 for inhibiting the proliferation of tumor cells, Mino cell. In kind it is cell-based. On the procedure:
(§1) The tumor cells used herein were cultured in RPMI 1640 medium supplemented with 10% FBS, penicillin to a final concentration of 100 U/mL, and streptomycin to a final concentration of 100 μg/mL, at 37° C. in an incubator with 5% CO2. Prior to experimentation, all cells used were correctly identified by STR profiling, and tested negative for Mycoplasma through routine screenings.
(§2) After 24 h, 100 μL of the inoculated cells were treated with 0.5 μL of the compounds of the present disclosure (including the compounds in Table 1, and Examples compounds) in DMSO at 10 different successively decreasing concentrations (starting at a maximum concentration of 10 μM; 5-fold serial dilutions). […] The growth inhibition of the compounds of the present disclosure on the cells was plotted using Prism Graphpad software, and the IC50 values of the compounds of the present disclosure were calculated.

Another test concerns MM.1S cells. The description is as above. Format: cell-based. The conditions noted are these: Homo sapiens, MM1.S, MM.1S cells, CCK-8, read-out: IC50 for inhibiting the proliferation of tumor cells, MM.1S cell. The method, then: as §1, §2

human Cereblon WT GST-tagged protein, sequence (Q96SW2 whole entry): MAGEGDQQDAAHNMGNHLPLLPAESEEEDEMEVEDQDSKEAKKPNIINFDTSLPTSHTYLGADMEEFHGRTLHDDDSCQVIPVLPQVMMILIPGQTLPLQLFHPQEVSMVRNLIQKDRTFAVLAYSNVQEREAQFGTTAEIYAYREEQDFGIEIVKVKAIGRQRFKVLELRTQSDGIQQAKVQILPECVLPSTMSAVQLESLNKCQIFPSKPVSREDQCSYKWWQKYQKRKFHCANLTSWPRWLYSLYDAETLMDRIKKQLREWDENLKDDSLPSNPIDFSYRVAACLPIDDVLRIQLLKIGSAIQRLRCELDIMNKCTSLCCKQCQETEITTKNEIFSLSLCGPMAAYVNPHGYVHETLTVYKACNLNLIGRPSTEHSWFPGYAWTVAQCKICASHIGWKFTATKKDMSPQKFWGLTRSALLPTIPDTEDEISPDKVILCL

On to `O=C1CCC(N2Cc3c(SCCCCNC45CC6CC(CC(C6)C4)C5)cc(F)cc3C2=O)C(=O)N1` (stereo not shown) [GT-04243, 3-(4-((4-((adamantan-1-yl)amino)butyl)thio)-6-fluoro-1-oxoisoindolin-2-yl)piperidine-2,6-dione], for which the IC50 in test [1] is below 600 nM.
Still for that read-out and setting: as for `O=C1CCC(N2Cc3c(SCCCCCCCNC45CC6CC(CC(C6)C4)C5)cc(F)cc3C2=O)C(=O)N1` (stereo not shown) [GT-04333, 3-(4-((7-((adamantan-1-yl)amino)heptyl)thio)-6-fluoro-1-oxoisoindolin-2-yl)piperidine-2,6-dione], the figure is below 600 nM; as for `O=C1CCC(N2Cc3c(SCCCCCCCCN4CCOCC4)cc(F)cc3C2=O)C(=O)N1` (stereo not shown) [GT-05341, 3-(6-fluoro-4-((8-morpholinooctyl)thio)-1-oxoisoindolin-2-yl)piperidine-2,6-dione], below 600 nM.
Same read-out and setting: with `CCN(CC)CCCCCCCCSc1cc(F)cc2c1CN(C1CCC(=O)NC1=O)C2=O` (stereo not shown) [GT-05342, 3-(4-((8-(diethylamino)octyl)thio)-6-fluoro-1-oxoisoindolin-2-yl)piperidine-2,6-dione] the figure was below 600 nM.
Consider `O=C1CCC(N2Cc3c(SCCCCCCC(=O)N4CCCCC4)cc(F)cc3C2=O)C(=O)N1` (stereo not shown) [GT-05343, 3-(6-fluoro-1-oxo-4-((7-oxo-7-(piperidin-1-yl)heptyl)thio)isoindolin-2-yl)piperidine-2,6-dione], for which the IC50 in test [1] was below 600 nM; with Mino cells it was 10 to 50 nM.
The compound `O=C1CCC(N2Cc3c(SCCCCCCCN4CCCCC4)cc(F)cc3C2=O)C(=O)N1` (stereo not shown) [GT-05344, 3-(6-fluoro-1-oxo-4-((7-(piperidin-1-yl)heptyl)thio)isoindolin-2-yl)piperidine-2,6-dione] registered an IC50 in test [1] below 600 nM.
For the compound `O=C1CCC(N2Cc3c(SCCCCCCC(=O)N4CCC(F)(F)CC4)cc(F)cc3C2=O)C(=O)N1` (stereo not shown) [GT-05407, 3-(4-((7-(4,4-difluoropiperidin-1-yl)-7-oxoheptyl)thio)-6-fluoro-1-oxoisoindolin-2-yl)piperidine-2,6-dione], the IC50 in test [1] is below 600 nM; in the test on Mino cells it was 10 to 50 nM; in the test on MM.1S cells, 50 to 100 nM.
On to `O=C1CCC(N2Cc3c(SCCCCCCCN4CCC(F)(F)CC4)cc(F)cc3C2=O)C(=O)N1` (stereo not shown) [GT-05408, 3-(4-((7-(4,4-difluoropiperidin-1-yl)heptyl)thio)-6-fluoro-1-oxoisoindolin-2-yl)piperidine-2,6-dione], for which the figures for the IC50 (in test [1]; with Mino cells) were below 600 nM and 50 to 100 nM, respectively.
Take `O=C1CCC(N2Cc3c(SCCCCCCCNC4CCCCC4)cc(F)cc3C2=O)C(=O)N1` (stereo not shown) [GT-05409, 3-(4-((7-(cyclohexylamino)heptyl)thio)-6-fluoro-1-oxoisoindolin-2-yl)piperidine-2,6-dione]: the IC50 in test [1] is below 600 nM; in the test with Mino cells, below 5 nM.
In the case of `CN(CCCCCCCSc1cc(F)cc2c1CN(C1CCC(=O)NC1=O)C2=O)C12CC3CC(CC(C3)C1)C2` (stereo not shown) [GT-05421, 3-(4-((7-((adamantan-1-yl)(methyl)amino)heptyl)thio)-6-fluoro-1-oxoisoindolin-2-yl)piperidine-2,6-dione], the IC50 was below 600 nM in test [1], below 5 nM with Mino cells and below 5 nM in the test with MM.1S cells.
Regarding `O=C1CCC(N2Cc3c(SCCCCCCCNC4CC5(CCC5)C4)cc(F)cc3C2=O)C(=O)N1` (stereo not shown) [GT-05422, 3-(6-fluoro-1-oxo-4-((7-(spiro[3.3]heptan-2-ylamino)heptyl)thio)isoindolin-2-yl)piperidine-2,6-dione], the IC50 was below 600 nM in test [1], below 5 nM in the test with Mino cells and below 5 nM in the test with MM.1S cells.
On to `O=C1CCC(N2Cc3c(CCCCCCCCNC45CC6CC(CC(C6)C4)C5)cc(F)cc3C2=O)C(=O)N1` (stereo not shown) [GT-05617, 3-(4-(8-((adamantan-1-yl)amino)octyl)-6-fluoro-1-oxoisoindolin-2-yl)piperidine-2,6-dione], for which the values for the IC50 (in test [1]; in the test with Mino cells) were below 600 nM and 50 to 100 nM, respectively.
